Legend:
Assay in all cases: relative viability (nuclei count vs DMSO), 5 days (fraction); higher = more cells survive
[1] = tested on: NCI-H358
In short: (§1)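 The day after seeding in 1536-well plates, lung cancer cell lines were treated by pin tool with a single drug, or with a fixed anchor-drug dose together with five library-drug doses (not always all listed) in √10 steps. After 5 days, a combined fix-and-stain solution (final 0.05% Triton X-100, 1% formaldehyde, 1 ug/ml Hoechst) was added. Nuclei counted on 4× images gave relative viability as treated counts over vehicle counts, reported as the median of duplicate plates.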

[2] = tested on: UMC-11
In short: as §1

[3] = tested on: PC-14
In short: as §1

[4] = tested on: NCI-H838
In short: as §1

[5] = tested on: HOP-62
In short: as §1

[6] = tested on: NCI-H1993
In short: as §1

[7] = tested on: LC-2-ad
In short: as §1

[8] = tested on: LU99A
In short: as §1

[9] = tested on: EPLC-272H
In short: as §1

[10] = tested on: NCI-H650
In short: as §1

[11] = tested on: COR-L23
In short: as §1

[12] = tested on: NCI-H2085
In short: as §1

[13] = tested on: NCI-H1355
In short: as §1

[14] = tested on: HARA
In short: as §1

[15] = tested on: NCI-H2347
In short: as §1

[16] = tested on: NCI-H1651
In short: as §1

[17] = tested on: NCI-H2023
In short: as §1

[18] = tested on: NCI-H2126
In short: as §1

[19] = tested on: HCC-15
In short: as §1

[20] = tested on: ABC-1
In short: as §1

[21] = tested on: SW 1573
In short: as §1

[22] = tested on: NCI-H1915
In short: as §1

## O=c1cc(N2CCOCC2)oc2c(-c3cccc4c3sc3ccccc34)cccc12 + COc1cc2c(Oc3ccc(NC(=O)C4(C(=O)Nc5ccc(F)cc5)CC4)cc3F)ccnc2cc1OCCCN1CCOCC1 [Foretinib] (partner 0.25 µM)
[1]; first compound 0.01 µM
  relative viability: 0.647
[1]; first compound 0.03162 µM
  relative viability: 0.7
[1]; first compound 0.1 µM
  relative viability: 0.667
[1]; first compound 0.3162 µM
  relative viability: 0.741
[1]; first compound 1 µM
  relative viability: 0.774
[2]; first compound 0.01 µM
  relative viability: 1
[2]; first compound 0.03162 µM
  relative viability: 1.08
[2]; first compound 0.1 µM
  relative viability: 1.03
[2]; first compound 0.3162 µM
  relative viability: 1.01
[2]; first compound 1 µM
  relative viability: 0.91
[3]; first compound 0.01 µM
  relative viability: 0.957
[3]; first compound 0.03162 µM
  relative viability: 0.965
[3]; first compound 0.1 µM
  relative viability: 0.994
[3]; first compound 0.3162 µM
  relative viability: 0.987
[3]; first compound 1 µM
  relative viability: 0.948
[4]; first compound 0.01 µM
  relative viability: 0.987
[4]; first compound 0.03162 µM
  relative viability: 1.02
[4]; first compound 0.1 µM
  relative viability: 1.12
[4]; first compound 0.3162 µM
  relative viability: 0.958
[4]; first compound 1 µM
  relative viability: 0.997
[5]; first compound 0.01 µM
  relative viability: 1.1
[5]; first compound 0.03162 µM
  relative viability: 1.17
[5]; first compound 0.1 µM
  relative viability: 1.11
[5]; first compound 0.3162 µM
  relative viability: 1.14
[5]; first compound 1 µM
  relative viability: 1.16
[6]; first compound 0.01 µM
  relative viability: 0.681
[6]; first compound 0.03162 µM
  relative viability: 0.845
[6]; first compound 0.1 µM
  relative viability: 0.878
[6]; first compound 0.3162 µM
  relative viability: 0.765
[6]; first compound 1 µM
  relative viability: 0.748
[7]; first compound 0.01 µM
  relative viability: 0.89
[7]; first compound 0.03162 µM
  relative viability: 1.03
[7]; first compound 0.1 µM
  relative viability: 0.921
[7]; first compound 0.3162 µM
  relative viability: 0.877
[7]; first compound 1 µM
  relative viability: 0.795
[8]; first compound 0.01 µM
  relative viability: 0.937
[8]; first compound 0.03162 µM
  relative viability: 0.739
[8]; first compound 0.1 µM
  relative viability: 0.908
[8]; first compound 0.3162 µM
  relative viability: 0.806
[8]; first compound 1 µM
  relative viability: 0.777
[9]; first compound 0.01 µM
  relative viability: 0.607
[9]; first compound 0.03162 µM
  relative viability: 0.667
[9]; first compound 0.3162 µM
  relative viability: 0.734
[9]; first compound 1 µM
  relative viability: 0.688
[10]; first compound 0.03162 µM
  relative viability: 1.07
[10]; first compound 0.1 µM
  relative viability: 0.918
[10]; first compound 0.3162 µM
  relative viability: 1.01
[10]; first compound 1 µM
  relative viability: 0.992
[11]; first compound 0.01 µM
  relative viability: 1.03
[11]; first compound 0.03162 µM
  relative viability: 0.996
[11]; first compound 0.1 µM
  relative viability: 0.954
[11]; first compound 0.3162 µM
  relative viability: 0.923
[11]; first compound 1 µM
  relative viability: 1.06
[12]; first compound 0.01 µM
  relative viability: 0.96
[12]; first compound 0.03162 µM
  relative viability: 0.941
[12]; first compound 0.1 µM
  relative viability: 0.961
[12]; first compound 0.3162 µM
  relative viability: 0.912
[12]; first compound 1 µM
  relative viability: 0.944
[13]; first compound 0.01 µM
  relative viability: 0.962
[13]; first compound 0.03162 µM
  relative viability: 1.01
[13]; first compound 0.1 µM
  relative viability: 0.952
[13]; first compound 0.3162 µM
  relative viability: 0.986
[13]; first compound 1 µM
  relative viability: 0.917
[14]; first compound 0.01 µM
  relative viability: 0.768
[14]; first compound 0.03162 µM
  relative viability: 0.897
[14]; first compound 0.1 µM
  relative viability: 0.857
[14]; first compound 0.3162 µM
  relative viability: 0.864
[14]; first compound 1 µM
  relative viability: 0.903
[15]; first compound 0.01 µM
  relative viability: 0.963
[15]; first compound 0.03162 µM
  relative viability: 0.761
[15]; first compound 0.1 µM
  relative viability: 0.675
[15]; first compound 0.3162 µM
  relative viability: 0.855
[15]; first compound 1 µM
  relative viability: 1.05
[16]; first compound 0.01 µM
  relative viability: 0.775
[16]; first compound 0.03162 µM
  relative viability: 0.766
[16]; first compound 0.1 µM
  relative viability: 0.958
[16]; first compound 0.3162 µM
  relative viability: 0.796
[16]; first compound 1 µM
  relative viability: 0.624
[17]; first compound 0.01 µM
  relative viability: 0.719
[17]; first compound 0.03162 µM
  relative viability: 0.803
[17]; first compound 0.1 µM
  relative viability: 0.763
[17]; first compound 0.3162 µM
  relative viability: 0.873
[17]; first compound 1 µM
  relative viability: 0.636
[18]; first compound 0.01 µM
  relative viability: 1.16
[18]; first compound 0.03162 µM
  relative viability: 1.22
[18]; first compound 0.1 µM
  relative viability: 1.29
[18]; first compound 0.3162 µM
  relative viability: 1.2
[18]; first compound 1 µM
  relative viability: 1.24
[19]; first compound 0.01 µM
  relative viability: 1.01
[19]; first compound 0.03162 µM
  relative viability: 1.09
[19]; first compound 0.1 µM
  relative viability: 1.09
[19]; first compound 0.3162 µM
  relative viability: 0.989
[19]; first compound 1 µM
  relative viability: 0.971
[20]; first compound 0.01 µM
  relative viability: 1.03
[20]; first compound 0.03162 µM
  relative viability: 0.943
[20]; first compound 0.1 µM
  relative viability: 1.48
[20]; first compound 0.3162 µM
  relative viability: 1.11
[20]; first compound 1 µM
  relative viability: 1.02
[21]; first compound 0.01 µM
  relative viability: 0.537
[21]; first compound 0.03162 µM
  relative viability: 0.982
[21]; first compound 0.1 µM
  relative viability: 0.87
[21]; first compound 0.3162 µM
  relative viability: 0.87
[21]; first compound 1 µM
  relative viability: 1.07
[22]; first compound 0.01 µM
  relative viability: 1.12
[22]; first compound 0.03162 µM
  relative viability: 1.1
[22]; first compound 0.1 µM
  relative viability: 1.16
[22]; first compound 0.3162 µM
  relative viability: 1.11
[22]; first compound 1 µM
  relative viability: 1.06

Reference: the supplement of paper PMC10307832
